{"source": "patent US20260356819A1", "about": "“OXOISOINDOLINYL-SUBSTITUTED […] DERIVATIVE AND USE THEREOF” (GLUETACS THERAPEUTICS (SHANGHAI) CO., LTD., priority 2023, published 2026)", "format_in_all_cases": "cell-based", "conditions_in_all_cases": "compounds at 50 nM and 500 nM", "key": {"[1]": {"biological_target": "T1, GSPT1 (Homo sapiens, UniProt P15170+Q96SW2)", "T1 construct": "The supernatant was aspirated as the extracted total cell protein; endogenous in cells; host or cells: human peripheral blood mononuclear cells (hPBMCs)", "test": "Western blot degradation of GSPT1 in hPBMCs (24 h)", "method_in_brief": "(§1)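 Western blot densitometry after 24 h treatment of human PBMCs (1×10^6 cells/mL) with 50 nM or 500 nM compound. Remaining target (%) = band intensity over internal-control band, normalized to DMSO; degradation = 1 − remaining; DC50 is the concentration giving half the DMSO band signal.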"}, "[2]": {"biological_target": "T2, CK1α (Homo sapiens, UniProt P48729+Q96SW2)", "T2 construct": "The supernatant was aspirated as the extracted total cell protein; endogenous in cells; host or cells: human peripheral blood mononuclear cells (hPBMCs)", "T2 sequence (P48729 whole entry)": "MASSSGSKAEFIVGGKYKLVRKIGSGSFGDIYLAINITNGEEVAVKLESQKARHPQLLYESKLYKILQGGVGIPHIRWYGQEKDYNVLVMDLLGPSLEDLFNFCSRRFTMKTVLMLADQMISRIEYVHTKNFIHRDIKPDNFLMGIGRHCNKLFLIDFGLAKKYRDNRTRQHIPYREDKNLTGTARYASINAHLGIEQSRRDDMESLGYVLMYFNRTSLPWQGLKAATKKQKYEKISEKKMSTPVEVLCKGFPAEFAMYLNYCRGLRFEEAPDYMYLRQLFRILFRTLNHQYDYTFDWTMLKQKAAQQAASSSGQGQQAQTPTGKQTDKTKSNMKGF", "T2 sequence (Q96SW2 whole entry)": "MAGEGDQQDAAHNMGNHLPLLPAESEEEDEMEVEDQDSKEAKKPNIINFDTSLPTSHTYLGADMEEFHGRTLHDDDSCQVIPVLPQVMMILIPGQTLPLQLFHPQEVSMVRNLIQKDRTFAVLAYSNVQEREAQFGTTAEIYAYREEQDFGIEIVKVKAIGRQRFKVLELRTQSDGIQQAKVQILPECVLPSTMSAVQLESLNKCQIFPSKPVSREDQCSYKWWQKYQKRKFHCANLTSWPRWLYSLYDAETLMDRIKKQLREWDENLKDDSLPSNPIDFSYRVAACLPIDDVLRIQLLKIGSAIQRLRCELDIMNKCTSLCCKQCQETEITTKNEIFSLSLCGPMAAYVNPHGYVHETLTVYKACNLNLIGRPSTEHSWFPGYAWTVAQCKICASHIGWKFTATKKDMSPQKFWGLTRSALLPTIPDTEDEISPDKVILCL", "T2 sequence (Q16531 whole entry partner)": "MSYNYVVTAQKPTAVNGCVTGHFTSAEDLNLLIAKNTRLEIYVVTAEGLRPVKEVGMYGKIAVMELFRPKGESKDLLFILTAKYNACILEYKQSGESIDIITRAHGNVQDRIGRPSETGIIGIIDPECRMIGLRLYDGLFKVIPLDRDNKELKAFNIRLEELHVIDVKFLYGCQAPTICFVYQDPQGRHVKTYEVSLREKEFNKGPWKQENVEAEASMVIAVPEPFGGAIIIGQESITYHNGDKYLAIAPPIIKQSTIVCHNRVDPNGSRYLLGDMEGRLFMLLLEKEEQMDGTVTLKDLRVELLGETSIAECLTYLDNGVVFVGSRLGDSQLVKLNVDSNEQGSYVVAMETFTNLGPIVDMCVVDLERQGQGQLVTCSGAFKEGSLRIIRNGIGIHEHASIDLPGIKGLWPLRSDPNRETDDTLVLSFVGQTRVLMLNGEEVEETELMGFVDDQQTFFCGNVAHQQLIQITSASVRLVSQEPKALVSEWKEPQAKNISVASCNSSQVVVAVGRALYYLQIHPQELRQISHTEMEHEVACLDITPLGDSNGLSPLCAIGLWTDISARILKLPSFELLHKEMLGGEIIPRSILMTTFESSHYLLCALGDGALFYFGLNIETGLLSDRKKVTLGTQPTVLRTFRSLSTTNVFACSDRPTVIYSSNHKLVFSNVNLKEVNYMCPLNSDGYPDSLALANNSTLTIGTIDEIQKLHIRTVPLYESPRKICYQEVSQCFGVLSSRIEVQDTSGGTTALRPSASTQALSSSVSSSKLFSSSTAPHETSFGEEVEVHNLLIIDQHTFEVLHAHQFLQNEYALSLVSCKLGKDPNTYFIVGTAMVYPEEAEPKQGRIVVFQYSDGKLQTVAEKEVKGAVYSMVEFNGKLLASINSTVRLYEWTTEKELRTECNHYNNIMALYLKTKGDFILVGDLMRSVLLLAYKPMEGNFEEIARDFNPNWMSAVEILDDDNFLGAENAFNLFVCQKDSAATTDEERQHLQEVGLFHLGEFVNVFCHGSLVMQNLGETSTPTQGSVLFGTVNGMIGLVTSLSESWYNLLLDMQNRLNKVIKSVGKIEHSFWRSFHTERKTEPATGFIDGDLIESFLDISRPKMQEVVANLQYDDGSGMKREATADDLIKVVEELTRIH", "test": "Western blot degradation of CK1α in hPBMCs (24 h)", "method_in_brief": "as §1"}, "[3]": {"biological_target": "T3, WEE1 (Homo sapiens, UniProt P30291+Q96SW2)", "T3 construct": "The supernatant was aspirated as the extracted total cell protein; endogenous in cells; host or cells: human peripheral blood mononuclear cells (hPBMCs)", "T3 sequence (P30291 whole entry)": "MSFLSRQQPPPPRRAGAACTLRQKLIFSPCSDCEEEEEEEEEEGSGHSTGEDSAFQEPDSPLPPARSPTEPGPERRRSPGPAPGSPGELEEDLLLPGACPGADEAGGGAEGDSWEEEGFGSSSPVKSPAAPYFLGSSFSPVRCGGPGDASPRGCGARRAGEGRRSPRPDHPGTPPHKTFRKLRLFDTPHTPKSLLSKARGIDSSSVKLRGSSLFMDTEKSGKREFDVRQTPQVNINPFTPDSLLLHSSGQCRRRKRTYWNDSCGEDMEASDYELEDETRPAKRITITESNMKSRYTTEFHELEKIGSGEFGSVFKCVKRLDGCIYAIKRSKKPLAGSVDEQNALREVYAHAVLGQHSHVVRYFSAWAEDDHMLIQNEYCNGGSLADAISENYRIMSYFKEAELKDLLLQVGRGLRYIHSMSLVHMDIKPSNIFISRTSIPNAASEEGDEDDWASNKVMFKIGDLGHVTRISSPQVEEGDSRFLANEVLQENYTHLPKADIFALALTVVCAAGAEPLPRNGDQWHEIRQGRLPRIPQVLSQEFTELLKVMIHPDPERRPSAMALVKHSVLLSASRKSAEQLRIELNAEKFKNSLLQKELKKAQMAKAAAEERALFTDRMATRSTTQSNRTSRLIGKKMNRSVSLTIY", "T3 sequence (Q96SW2 whole entry)": "as the sequence (Q96SW2 whole entry) above", "T3 sequence (Q16531 whole entry partner)": "as the sequence (Q16531 whole entry partner) above", "test": "Western blot degradation of WEE1 in hPBMCs (24 h)", "method_in_brief": "as §1"}, "[4]": {"biological_target": "T4, IKZF3 (Homo sapiens, UniProt Q96SW2+Q9UKT9)", "T4 construct": "The supernatant was aspirated as the extracted total cell protein; endogenous in cells; host or cells: human peripheral blood mononuclear cells (hPBMCs)", "T4 sequence (Q9UKT9 whole entry)": "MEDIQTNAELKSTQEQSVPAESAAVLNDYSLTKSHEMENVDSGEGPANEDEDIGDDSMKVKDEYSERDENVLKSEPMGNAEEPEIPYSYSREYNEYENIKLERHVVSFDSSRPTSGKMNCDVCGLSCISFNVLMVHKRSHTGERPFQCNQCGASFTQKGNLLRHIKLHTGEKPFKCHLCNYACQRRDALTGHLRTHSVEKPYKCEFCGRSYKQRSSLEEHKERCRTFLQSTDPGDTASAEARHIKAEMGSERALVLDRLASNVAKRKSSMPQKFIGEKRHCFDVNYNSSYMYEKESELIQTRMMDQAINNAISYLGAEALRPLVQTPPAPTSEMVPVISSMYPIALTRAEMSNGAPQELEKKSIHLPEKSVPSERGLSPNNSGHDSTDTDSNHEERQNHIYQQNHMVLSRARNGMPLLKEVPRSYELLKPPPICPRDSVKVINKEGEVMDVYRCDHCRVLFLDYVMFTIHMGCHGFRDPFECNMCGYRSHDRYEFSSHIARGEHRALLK", "T4 sequence (Q96SW2 whole entry)": "as the sequence (Q96SW2 whole entry) above", "T4 sequence (Q16531 whole entry partner)": "as the sequence (Q16531 whole entry partner) above", "test": "Western blot degradation of IKZF3 in hPBMCs (24 h)", "method_in_brief": "as §1"}, "[5]": {"biological_target": "T5, IKZF1 (Homo sapiens, UniProt Q13422+Q96SW2)", "T5 construct": "The supernatant was aspirated as the extracted total cell protein; endogenous in cells; host or cells: human peripheral blood mononuclear cells (hPBMCs)", "T5 sequence (Q13422 whole entry)": "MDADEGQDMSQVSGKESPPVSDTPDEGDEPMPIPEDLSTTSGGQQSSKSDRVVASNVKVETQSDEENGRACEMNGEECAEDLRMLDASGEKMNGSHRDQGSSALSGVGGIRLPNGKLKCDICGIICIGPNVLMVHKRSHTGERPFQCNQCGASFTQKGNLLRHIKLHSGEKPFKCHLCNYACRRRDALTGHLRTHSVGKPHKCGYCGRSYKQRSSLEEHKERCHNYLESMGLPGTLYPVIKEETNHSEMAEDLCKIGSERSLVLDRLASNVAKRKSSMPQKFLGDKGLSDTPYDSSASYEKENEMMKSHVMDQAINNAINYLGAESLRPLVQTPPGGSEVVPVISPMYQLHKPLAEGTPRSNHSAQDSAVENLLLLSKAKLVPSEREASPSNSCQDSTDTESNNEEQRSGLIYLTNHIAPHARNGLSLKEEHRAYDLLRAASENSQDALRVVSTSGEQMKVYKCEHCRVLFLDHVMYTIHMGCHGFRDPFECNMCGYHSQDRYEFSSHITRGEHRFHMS", "T5 sequence (Q96SW2 whole entry)": "as the sequence (Q96SW2 whole entry) above", "T5 sequence (Q16531 whole entry partner)": "as the sequence (Q16531 whole entry partner) above", "test": "Western blot degradation of IKZF1 in hPBMCs (24 h)", "method_in_brief": "as §1"}, "[6]": {"biological_target": "T6, IKZF2 (Homo sapiens, UniProt Q96SW2+Q9UKS7)", "T6 construct": "The supernatant was aspirated as the extracted total cell protein; endogenous in cells; host or cells: human peripheral blood mononuclear cells (hPBMCs)", "T6 sequence (Q9UKS7 whole entry)": "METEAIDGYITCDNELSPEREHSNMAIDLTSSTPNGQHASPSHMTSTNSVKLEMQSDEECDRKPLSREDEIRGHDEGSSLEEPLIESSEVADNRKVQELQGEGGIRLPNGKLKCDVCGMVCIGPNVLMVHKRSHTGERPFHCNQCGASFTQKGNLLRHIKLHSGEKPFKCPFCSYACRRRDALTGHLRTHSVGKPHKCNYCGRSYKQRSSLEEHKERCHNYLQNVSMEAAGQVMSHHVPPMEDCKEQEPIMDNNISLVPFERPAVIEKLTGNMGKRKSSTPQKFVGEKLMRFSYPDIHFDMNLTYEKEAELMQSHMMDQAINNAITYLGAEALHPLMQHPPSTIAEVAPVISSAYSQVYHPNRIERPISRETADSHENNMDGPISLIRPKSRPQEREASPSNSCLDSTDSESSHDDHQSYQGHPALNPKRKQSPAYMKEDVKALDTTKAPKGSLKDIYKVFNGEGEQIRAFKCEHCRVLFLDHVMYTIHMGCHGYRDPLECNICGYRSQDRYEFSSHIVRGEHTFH", "T6 sequence (Q96SW2 whole entry)": "as the sequence (Q96SW2 whole entry) above", "T6 sequence (Q16531 whole entry partner)": "as the sequence (Q16531 whole entry partner) above", "test": "Western blot degradation of IKZF2 in hPBMCs (24 h)", "method_in_brief": "as §1"}}, "data": [{"smiles": "O=C1CCN(N2C(=O)c3ccc(CN4CCN(c5ccnc(Br)c5F)CC4)cc3C2=O)C(=O)N1", "note": "[GT-07167, 5-((4-(2-bromo-3-fluoropyridin-4-yl)piperazin-1-yl)methyl)-2-(2,4-dioxotetrahydropyrimidin-1(2H)-yl)isoindoline-1,3-dione]", "values": [{"measurement": "GSPT1 substrate protein remaining %", "setting": "[1]", "value": "A (0% ≤ substrate protein remaining % ≤80%)"}, {"measurement": "CK1α substrate protein remaining %", "setting": "[2]", "value": "B (80%< substrate protein remaining % ≤100%)"}, {"measurement": "WEE1 substrate protein remaining %", "setting": "[3]", "value": "B (80%< substrate protein remaining % ≤100%)"}, {"measurement": "IKZF3 substrate protein remaining %", "setting": "[4]", "value": "B (80%< substrate protein remaining % ≤100%)"}, {"measurement": "IKZF1 substrate protein remaining %", "setting": "[5]", "value": "B (80%< substrate protein remaining % ≤100%)"}, {"measurement": "IKZF2 substrate protein remaining %", "setting": "[6]", "value": "A (0% ≤ substrate protein remaining % ≤80%)"}]}, {"smiles": "O=C1CCN(N2C(=O)c3ccc(CN4CCN(c5ccnc(Cl)c5Br)CC4)cc3C2=O)C(=O)N1", "note": "[GT-07168, 5-((4-(3-bromo-2-chloropyridin-4-yl)piperazin-1-yl)methyl)-2-(2,4-dioxotetrahydropyrimidin-1(2H)-yl)isoindoline-1,3-dione]", "values": [{"measurement": "GSPT1 substrate protein remaining %", "setting": "[1]", "value": "A (0% ≤ substrate protein remaining % ≤80%)"}, {"measurement": "CK1α substrate protein remaining %", "setting": "[2]", "value": "B (80%< substrate protein remaining % ≤100%)"}, {"measurement": "WEE1 substrate protein remaining %", "setting": "[3]", "value": "B (80%< substrate protein remaining % ≤100%)"}, {"measurement": "IKZF3 substrate protein remaining %", "setting": "[4]", "value": "B (80%< substrate protein remaining % ≤100%)"}, {"measurement": "IKZF1 substrate protein remaining %", "setting": "[5]", "value": "B (80%< substrate protein remaining % ≤100%)"}, {"measurement": "IKZF2 substrate protein remaining %", "setting": "[6]", "value": "A (0% ≤ substrate protein remaining % ≤80%)"}]}, {"smiles": "O=C1CCN(N2Cc3cc(CN4CCN(c5ccnc(Cl)c5Cl)CC4)ccc3C2=O)C(=O)N1", "note": "[GT-07169, 1-(5-((4-(2,3-dichloropyridin-4-yl)piperazin-1-yl)methyl)-1-oxoisoindolin-2-yl)dihydropyrimidine-2,4(1H,3H)-dione]", "values": [{"measurement": "GSPT1 substrate protein remaining %", "setting": "[1]", "value": "B (80%< substrate protein remaining % ≤100%)"}, {"measurement": "CK1α substrate protein remaining %", "setting": "[2]", "value": "B (80%< substrate protein remaining % ≤100%)"}, {"measurement": "WEE1 substrate protein remaining %", "setting": "[3]", "value": "A (0% ≤ substrate protein remaining % ≤80%)"}, {"measurement": "IKZF3 substrate protein remaining %", "setting": "[4]", "value": "B (80%< substrate protein remaining % ≤100%)"}, {"measurement": "IKZF1 substrate protein remaining %", "setting": "[5]", "value": "B (80%< substrate protein remaining % ≤100%)"}, {"measurement": "IKZF2 substrate protein remaining %", "setting": "[6]", "value": "B (80%< substrate protein remaining % ≤100%)"}]}, {"smiles": "O=C1CCN(N2Cc3cc(CN4CCN(c5c(Cl)cncc5Br)CC4)ccc3C2=O)C(=O)N1", "note": "[GT-07170, 1-(5-((4-(3-bromo-5-chloropyridin-4-yl)piperazin-1-yl)methyl)-1-oxoisoindolin-2-yl)dihydropyrimidine-2,4(1H,3H)-dione]", "values": [{"measurement": "GSPT1 substrate protein remaining %", "setting": "[1]", "value": "B (80%< substrate protein remaining % ≤100%)"}, {"measurement": "CK1α substrate protein remaining %", "setting": "[2]", "value": "B (80%< substrate protein remaining % ≤100%)"}, {"measurement": "WEE1 substrate protein remaining %", "setting": "[3]", "value": "A (0% ≤ substrate protein remaining % ≤80%)"}, {"measurement": "IKZF3 substrate protein remaining %", "setting": "[4]", "value": "B (80%< substrate protein remaining % ≤100%)"}, {"measurement": "IKZF1 substrate protein remaining %", "setting": "[5]", "value": "A (0% ≤ substrate protein remaining % ≤80%)"}, {"measurement": "IKZF2 substrate protein remaining %", "setting": "[6]", "value": "B (80%< substrate protein remaining % ≤100%)"}]}, {"smiles": "O=C1CCN(N2Cc3cc(CN4CCN(c5c(F)cncc5Cl)CC4)ccc3C2=O)C(=O)N1", "note": "[GT-07171, 1-(5-((4-(3-chloro-5-fluoropyridin-4-yl)piperazin-1-yl)methyl)-1-oxoisoindolin-2-yl)dihydropyrimidine-2,4(1H,3H)-dione]", "values": [{"measurement": "GSPT1 substrate protein remaining %", "setting": "[1]", "value": "B (80%< substrate protein remaining % ≤100%)"}, {"measurement": "CK1α substrate protein remaining %", "setting": "[2]", "value": "B (80%< substrate protein remaining % ≤100%)"}, {"measurement": "WEE1 substrate protein remaining %", "setting": "[3]", "value": "A (0% ≤ substrate protein remaining % ≤80%)"}, {"measurement": "IKZF3 substrate protein remaining %", "setting": "[4]", "value": "B (80%< substrate protein remaining % ≤100%)"}, {"measurement": "IKZF1 substrate protein remaining %", "setting": "[5]", "value": "B (80%< substrate protein remaining % ≤100%)"}, {"measurement": "IKZF2 substrate protein remaining %", "setting": "[6]", "value": "B (80%< substrate protein remaining % ≤100%)"}]}]}
